“Also recorded” adds a separate entry of the source. Where a SMILES comes first, the peptide text is derived from it. Bridges are numbered along the chain shown (N, C = ends). Roman numbers before positions name the chains, in order. [ ]: non-standard residue; d: D form. The star is where a group is joined. Arachidoyl = CCCCCCCCCCCCCCCCCCCC(=O)*; Orn = NCCC[C@H](N)C(=O)O
Columns and labels:
[1] = test system: CHO stably expressing green fluorescent protein (GFP); assay: GFP gene downregulation by CPP/siGFP complexes (lysate fluorescence, FACS, confocal); assay type: cell-based; details: siGFP 100 nM
Description: (§1) For assessing the siRNA mediated RNAi, CHO-GFP or U87-luc2 cells (5×10^5 cells per well) were seeded on a 24-well plate a day prior to the experiment and grown in serum containing media. On experiment day, prior to adding pre-formed complexes ( 1/10th of the final volume per well), media was replaced with fresh serum containing medium.
(§2) For complex formation, peptide was mixed with luc2 siRNA (sense 5′-[…]-3′ (SEQ ID NO:7), antisense 5′-[…] 3′ (SEQ ID NO:8), Metabion, Germany) or with siRNA against GFP (5′-[…] (SEQ ID NO:9), 3′-[…] (SEQ ID NO:10)) in mQ water (pH 5.3-6.3) using peptide to siRNA molar ratios (MR is the ratio of peptide to siRNA) […] and incubated at RT for 1 h. For siLuc2, the final concentration in media was 25 nM and for siGFP 100 nM. Cells were co-incubated with complexes for 4 h (37° C., 5% CO2), thereafter fresh serum containing media was added and followed by further incubation (20 h for siLuc2 or 44 h for siGFP complexes). Luciferase gene downregulation was measured from cell lysates with Promega luciferase assay system (Promega, Sweden) in combination with GLOMAX 96 microplate luminometer equipped with GLOMAX 1.9.2 software (Promega). GFP was measured after treatment from cell lysates on black 96-well plates by measuring total fluorescence (Symergy MX, BioTek Instruments, USA equipped with Gen5 1.10 software). The results were normalized to the protein content of each sample (DC Protein Assay, BioRad, USA).
For flow cytometry analysis (FACS) analysis CHO-GFP cells were seeded and treated as described previously. After incubation, cells were washed with 1× PBS and detached from plates with trypsin-EDTA (0.25%), and re-suspended in PBS supplemented with FBS (5%) and transferred to transparent U-bottom 96-well plates. FACS was carried out with BD LSR II flow cytometer (BD Biosciences, San Jose, CA, USA) equipped with a 488 nm argon laser. Population of viable cells was determined from scatter plot: forward scattered plot (FSC) vs. side scattered light (SSC) plot. A minimum of 10,000 events from the viable cell population per sample were analyzed using BD FACS Diva software. Results are shown as the population with GFP signal lower than that of 0.1% of untreated cells.
For confocal microscopy 2×10^5 cells per chamber were seeded on NUNC 8-chamber plates. After treatment with complexes (25 ul of pre-formed CPP/siRNA complexes added to cells in 225 ul serum containing media), incubated (48 h) and GFP florescence images of cells were captured using confocal microscope Zeiss LSM 710 and excitation at 488 nm (493-616 filter).

[2] = Fluorescent dye (PicoGreen) intercalation and heparin displacement assay of CPP/siRNA complexes; assay type: physicochemical
Description: Complexation of siRNA and CPPs was assessed by Quant-iT™ PicoGreen® (PG) (Thermo Fisher Scientific, USA) assay in mQ water. Complexes were prepared as described previously, following addition of diluted PG. For detection, complexes (⅕ of volume), water (3/5) and PG (1/5) working dilution was incubated for 5 minutes and fluorescence was measured by fluorimeter (λex=492 nm, λem=535 nm) (SynergyMx, BioTek). For heparin displacement, instead of water, heparin salt solution at different concentrations were used and complexes incubated at 37° C. for 30 min before addition of PG dilution. Complex formation was also confirmed by gel electrophoresis (details in section 2.11).

[3] = test system: U87 MG-luc2 human glioma cells, stably expressing luc2; assay: Luciferase gene downregulation by CPP/siRNA (siLuc2) complexes; assay type: cell-based; details: CPP/siRNA complexes, siRNA against luciferase
Description: as §1, §2
Luciferase activity was determined as described in previous paragraph.
For determination of pH dependency on the transfection efficiency, complexes were formed at MR30, incubated and diluted before addition to cells to obtain siRNA final concentration 10 nM in transfection media. HEPES buffer supplemented with 10% FBS was used as transfection media. Complexes were co-incubated with cells for 4 h and then media was replaced with cell growth media. After further 20 h incubation cells were lysed and analyzed as described previously.
The experiment was carried out in serum containing media (10% FBS). CPP/siRNA complexes were formed at different molar ratios with siRNA concentration kept constant (50 nM in transfection media). Luminescence from luciferin-luciferase reaction was measured at 24 hours post-treatment from cell lysate. Results were normalized to protein content and luminescence values from untreated cells (100%).

murine red blood cells = assay: Membrane activity assay on murine red blood cells: hemolysis; assay type: cell-based, mouse
Description: For evaluation of membrane activity of peptides, hemolysis assay was used. For this whole blood was collected from mouse (adult, BALB/c) saphenous vein into a heparinized collection tube. Blood was centrifuged (2300× g, 15 min) to separate cells (red blood cells-RBC) from the plasma. RBCs were washed according to following procedures.
RBCs were washed with 10 ml 0.9% NaCl saline and centrifuged (600× g, 15 min). Supernatant was discarded after each centrifugation. This was repeated at least 3 times. RBCs were re-suspended in 5 ml saline and distributed equally to tubes and centrifuged (600× g, 15 min). The cells were washed and re-suspended in 2× PBS with the required pH (pH 5.5-7.5). The hemoglobin content in stocks was measured after lysis of cells with equal volume of 0.1% Triton X100 supplemented with 5% glucose. The cell suspension was diluted accordingly for each pH value to obtain similar concentration range of hemoglobin in stocks. To each 100 ul of peptide solution 100 ul of 10% glucose was added, mixed, and equal volume (200 ul) of RBC in 2× PBS were added and gently mixed. Peptide solution with RBCs was incubated at 37° C. for 1 h with gentle mixing (max 300 rpm) after which samples were centrifuged to pellet intact cells from the solution. Hemoglobin from lysed cells was determined from each sample from the supernatant on transparent 96-well plates by measuring the absorbance at 540 nm.
Controls were incubated in similar manner as samples. As a non-hemolysis control mQ supplemented with glucose (0%) was used and for hemolytic control 0.1% TritonX-100 with glucose (100%) was used (cells are suspended in 2× PBS before addition). Final percent was calculated as follows: […]
For hemolytic concentration determination 2× PBS at pH 7.5 was used for incubation and 1× PBS at pH 7.5 was used for washing. Everything else is as described in previous paragraph.

Proteinase K = biological target: T1, Proteinase K (Parengyodontium album, UniProt P06873); assay: Stability of CPP/siRNA complexes to degradation by Proteinase K; assay type: physicochemical; details: Proteinase K >14.4 U per well
T1 construct: purchased Thermo Scientific, USA
Description: To assess protection of siRNA from enzymatic degradation, after addition of PG dilution and initial measurement to set a starting point, Proteinase K (Thermo Scientific, USA) was added (>14 U/ml, 20 ul of mixture per well containing dilution of 120 ul of enzyme in 1 ml), co-incubated with complexes and fluorescence was measured over a 10 h period.

CHO cells = assay: pDNA (p-CMV-Luc2) transfection with CPP/pDNA complexes; assay type: cell-based; details: serum containing medium, CR1 to CR4, 24 h
Description: For the pDNA transfection experiment, CPP/pDNA nanoparticles were prepared by mixing […] of plasmid (p-CMV-Luc2) with the peptide in MQ water. Charge ratios from 1 to 4 (CR, equivalent to the nitrogen-to-phosphate ratio) were used. 50,000 CHO cells were seeded 24 hr before the experiment into 24-well plates, treated with complexes for 4 h in serum-containing medium, incubated for additional 20 hr, lysed and luminescence was measured.

organs of BALB/c mice = assay: Gene delivery in vivo (CPP/pDNA, i.v., organ luminescence); design: species or system mouse; details: CR2 or CR4, 50 μg or 20 μg pDNA, 24 h
Description: For in vivo pDNA delivery studies BALB/c mice were used. Each animal received a single […] intravenous (i.v.) injection of the complexes at CR2 or CR4. Two doses of pDNA […] were used. After 24 hr, the mice were sacrificed using cervical dislocation, and whole organs were harvested and snap-frozen on dry ice. The organs were homogenized, and luminescence was measured.

T1 sequence (P06873 106-384): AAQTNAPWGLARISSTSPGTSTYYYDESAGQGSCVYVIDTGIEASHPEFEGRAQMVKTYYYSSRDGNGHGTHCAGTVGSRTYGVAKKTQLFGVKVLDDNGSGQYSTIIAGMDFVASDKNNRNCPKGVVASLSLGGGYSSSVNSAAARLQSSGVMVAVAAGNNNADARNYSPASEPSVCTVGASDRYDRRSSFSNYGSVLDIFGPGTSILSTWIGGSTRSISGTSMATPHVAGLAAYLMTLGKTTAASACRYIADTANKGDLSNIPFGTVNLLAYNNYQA

Compound | downregulation of GFP (average, cell lysate fluorescence) [1] | accessibility of siRNA in complexes (dye intercalation) ([2]; MR30, no heparin) | stability of complexes to heparin displacement (in words) ([2]; complexes pre-formed at MR30) | Red (%) (reduction, based on remaining luminescence on U87 cells post-treatment) [3] | hemolytic activity of free peptide (in words) (murine red blood cells; free peptide, up to 10 uM) | pH dependent hemolytic activity (in words) (murine red blood cells; peptide 0.75 uM, buffer pH 5.5-7.5) | stability of complexes to proteinase K (in words) (Proteinase K) | pDNA delivery / gene expression in vitro (in words) (CHO cells) | reporter gene expression in organs after i.v. CPP/pDNA (in words) (organs of BALB/c mice)
CCCCCCCCCCCCCCCCCCCC(=O)N[C@@H](Cc1c[nH]cn1)C(=O)N[C@@H](Cc1c[nH]cn1)C(=O)N[C@@H](Cc1c[nH]cn1)C(=O)N[C@@H](Cc1c[nH]cn1)C(=O)N[C@@H](Cc1c[nH]cn1)C(=O)N[C@@H](Cc1c[nH]cn1)C(=O)NCC(=O)NCCC[C@H](N)C(=O)N[C@H](C(=O)N[C@@H](CC(C)C)C(=O)N[C@@H](CC(C)C)C(=O)N[C@@H](CCCCN)C(=O)N[C@@H](C)C(=O)N[C@@H](CC(C)C)C(=O)N[C@@H](CCCCN)C(=O)N[C@@H](C)C(=O)N[C@@H](CC(C)C)C(=O)N[C@@H](C)C(=O)N[C@@H](CCCCN)C(=O)N[C@@H](C)C(=O)N[C@H](C(=O)N[C@@H](CC(C)C)C(N)=O)[C@@H](C)CC)[C@@H](C)CC [NF705] (I: H-[Orn]ILLKALKALAKAIL-NH2 / II: Arachidoyl-HHHHHHG; amide I:1-II:C) | lower efficiency than H6-C20 | low accessibility of siRNA | significantly higher stability to heparin displacement than NF70 peptide and even NF72 peptide | 52 | significantly higher | markedly hemolytic already at pH 7.5 | formed the most stable complexes with siRNA resistant to proteinase K | – | –
HHHHYHHGO^eILLKALKALAKAIL [NF702, group H6; C18 saturated fatty acid on N-terminus; C-terminally amidated] | – | – | – | 70 | – | – | – | almost yielded the same gene expression level as that of NF70 and NF55; also recorded: promising vectors for pDNA transfection | –
HHHYHHGO^eILLKALKALAKAIL [NF716, group H5; C20 saturated fatty acid on N-terminus; C-terminally amidated] | – | – | – | 65 | – | – | – | promising vectors for pDNA transfection | –
HYHHGO^eILLKALKALAKAIL [NF725, group H3; C18 saturated fatty acid on N-terminus; C-terminally amidated] | – | – | – | 60 | – | – | – | promising vectors for pDNA transfection | high gene expression level in liver; also recorded: higher at CR4 than CR2
HYHHGO^eILLKALKALAKAIL [NF727, group H3; C22 saturated fatty acid on N-terminus; C-terminally amidated] | – | – | – | 43 | – | – | – | promising vectors for pDNA transfection | –

Source: patent US12385042B2, “Cell-penetrating peptides” (VECTIOPEP OÜ, priority 2019, dated 2025)
